Source: ChEMBL document CHEMBL1201862, “PubChem BioAssay data set” (2004)
Active and inactive are the calls of the source.

Legend:
[1] = target: Luciferin 4-monooxygenase (Photinus pyralis, UniProt P08659); test: inhibition of purified Photinus pyralis luciferase – biochemical, luminescence, dose response (AID 1891)
[2] = target: T1, Voltage-gated N-type calcium channel alpha-1B subunit/Amyloid beta A4 precursor protein-binding family A member 1 (Homo sapiens, UniProt Q00975+Q02410); assay type: protein assay
[3] = target: T2, Sphingosine 1-phosphate receptor 4 (Homo sapiens, UniProt O95977); test: Fluorescence dose response cell-based high throughput screening assay for antagonists of the Sphingosine 1-Phosphate Receptor 4 (S1P4). [Related pubchem assays: 1524 (Confirmation in triplicates.), 1510 (Primary screen.)]; assay type: functional
T2 sequence (O95977 whole entry): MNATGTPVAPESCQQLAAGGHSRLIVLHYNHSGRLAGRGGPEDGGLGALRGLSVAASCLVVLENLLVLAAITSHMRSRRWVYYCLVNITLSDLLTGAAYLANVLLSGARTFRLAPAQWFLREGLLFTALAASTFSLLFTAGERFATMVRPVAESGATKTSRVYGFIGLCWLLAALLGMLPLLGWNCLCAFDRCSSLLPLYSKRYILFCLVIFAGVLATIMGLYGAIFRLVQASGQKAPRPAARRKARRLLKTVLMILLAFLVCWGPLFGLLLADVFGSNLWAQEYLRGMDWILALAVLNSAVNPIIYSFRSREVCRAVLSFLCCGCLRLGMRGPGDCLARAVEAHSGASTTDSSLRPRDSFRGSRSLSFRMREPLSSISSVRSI

CHO-K1 = test: (§1) Counterscreen for antagonists of the orexin 1 receptor (OX1R; HCRTR1): Homogeneous time resolved fluorescence (HTRF)-based cell-based dose response assay to identify antagonists of the parental CHO-K1 cell line. [Related pubchem assays (depositor defined):AID434989, AID435008, AID463079, AID485270, AID492963, AID492964, AID492965, AID493232, AID504699, AID504701]; assay type: functional; settings: Cricetulus griseus
[4] = target: T3, Orexin/Hypocretin receptor type 1 (Homo sapiens, UniProt O43613); test: (§2) Fluorescence-based cell-based high throughput dose response assay for antagonists of the orexin 1 receptor (OX1R; HCRTR1). [Related pubchem assays (depositor defined):AID434989, AID435008, AID463079, AID485270, AID492963, AID492964, AID492965, AID493232, AID504717, AID504718]; assay type: functional
T3 sequence (O43613 whole entry): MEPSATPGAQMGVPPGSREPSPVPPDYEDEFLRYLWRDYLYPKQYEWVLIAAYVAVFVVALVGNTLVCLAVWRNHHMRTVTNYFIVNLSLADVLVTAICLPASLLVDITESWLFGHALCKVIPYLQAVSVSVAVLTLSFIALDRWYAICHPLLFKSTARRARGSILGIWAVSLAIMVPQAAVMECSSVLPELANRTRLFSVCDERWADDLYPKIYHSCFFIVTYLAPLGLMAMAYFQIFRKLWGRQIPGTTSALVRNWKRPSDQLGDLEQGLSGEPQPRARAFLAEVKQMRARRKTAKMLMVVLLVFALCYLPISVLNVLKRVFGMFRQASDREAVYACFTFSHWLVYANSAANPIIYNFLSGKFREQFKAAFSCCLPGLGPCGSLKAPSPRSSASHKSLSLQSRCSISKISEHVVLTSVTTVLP

[5] = target: Sphingosine 1-phosphate receptor 1 (Homo sapiens, UniProt P21453); assay type: functional;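 note: Tango beta-arrestin reporter U2OS cells stimulated with S1P near its EC80; inhibitor potency meaning antagonism of receptor activation by the natural agonist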
Beta Lactamase = Beta Lactamase (Pseudomonas aeruginosa, UniProt Q932Y6); test: BLA reporter interference, concentration series – BLA reporter cells, FRET fluorescence, artefact control for NOD2-RIPK2 interaction inhibitor project, dose response (AID 651552); assay type: functional, cell-based
[6] = Luminescence Cell-Based Dose Confirmation HTS to Identify Inhibitors of Platelet Dense Granule Release. [Related pubchem assays: 1663 (Primary HTS), 1678 (Summary of Project)]; assay type: functional
[7] = Fluorescence-based cell-based high throughput dose response assay for inhibitors of the interaction of nucleotide-binding oligomerization domain containing 2 (NOD2) and the receptor-interacting serine-threonine kinase 2 (RIPK2).; assay type: functional; settings: Homo sapiens
[8] = as §1, with “Fluorescence-based” for “Homogeneous time resolved fluorescence (HTRF)-based”, “cell-based high throughput” for “cell-based”, “CHO” for “CHO-K1”; assay type: functional
[9] = target: Heat shock protein HSP 90-alpha (Homo sapiens, UniProt P07900); assay type: functional, organism-based
[10] = target: T1, Voltage-gated N-type calcium channel alpha-1B subunit/Amyloid beta A4 precursor protein-binding family A member 1; assay type: protein assay; remark: listed apart in the source
[11] = target: T3, Orexin/Hypocretin receptor type 1; test: as §2, with “Homogeneous Time Resolved Fluorescence (HTRF)-based” for “Fluorescence-based”; assay type: functional
BJ [12] = test: growth inhibition of engineered Ras-driven BJ cells – cell-based, alamar blue fluorescence, cherrypicked samples, dose response (AID 2631); assay type: functional; settings: Homo sapiens;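 note: confirmatory dose-response assay in RAS-dependent BJ fibroblasts engineered with TERT, LT and ST, with cytotoxicity read by fluorescence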
[13] = target: T4, Replicative DNA helicase DnaB (Mycobacterium tuberculosis, UniProt P9WMR3); test: DnaB intein splicing inhibitors, dose response, biochemical, cell-free fluorescence (AID 449749); assay type: functional
T4 sequence (P9WMR3 whole entry): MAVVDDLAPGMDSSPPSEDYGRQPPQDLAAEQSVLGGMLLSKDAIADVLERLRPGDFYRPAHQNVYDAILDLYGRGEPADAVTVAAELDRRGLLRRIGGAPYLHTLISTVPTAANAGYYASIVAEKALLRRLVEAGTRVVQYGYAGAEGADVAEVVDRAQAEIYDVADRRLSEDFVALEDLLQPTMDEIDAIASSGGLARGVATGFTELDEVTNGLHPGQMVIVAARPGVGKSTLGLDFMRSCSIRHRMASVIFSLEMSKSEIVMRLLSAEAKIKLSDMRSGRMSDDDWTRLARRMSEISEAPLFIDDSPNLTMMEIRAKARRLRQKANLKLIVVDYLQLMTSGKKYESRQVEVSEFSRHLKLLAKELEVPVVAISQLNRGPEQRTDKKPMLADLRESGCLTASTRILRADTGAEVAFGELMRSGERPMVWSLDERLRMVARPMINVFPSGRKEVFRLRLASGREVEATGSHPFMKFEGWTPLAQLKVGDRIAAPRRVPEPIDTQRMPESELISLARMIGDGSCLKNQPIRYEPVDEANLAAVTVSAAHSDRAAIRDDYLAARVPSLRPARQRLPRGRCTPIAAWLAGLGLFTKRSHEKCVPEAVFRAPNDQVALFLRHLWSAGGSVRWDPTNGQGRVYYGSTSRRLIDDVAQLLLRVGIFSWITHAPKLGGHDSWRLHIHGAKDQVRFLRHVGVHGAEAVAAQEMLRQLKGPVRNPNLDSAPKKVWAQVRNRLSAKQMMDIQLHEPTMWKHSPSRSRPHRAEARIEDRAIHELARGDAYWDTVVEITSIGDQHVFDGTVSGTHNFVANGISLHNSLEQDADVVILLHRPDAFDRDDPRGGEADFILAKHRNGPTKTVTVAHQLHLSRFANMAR

BJ [14] = test: BJ-TERT-LT-ST fibroblast viability loss – cell-based, RAS-independent, luminescence, dose response (AID 1935); assay type: functional; settings: Homo sapiens;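 note: BJ fibroblasts immortalized with TERT plus LT and ST oncogenes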
[15] = general cell-killing toxicity readout – plate reader, dry powder samples, cytotoxicity control for PAX8 inhibitor project, dose response (AID 743021); assay type: functional, cell-based
BJ [16] = test: cells; assay type: functional, cell-based; settings: Homo sapiens
[17] = HEK-293T cell viability reduction – luminescence, B-cell screen hits, cytotoxicity control for BCR NF-kB inhibitor project, dose response (AID 489021); assay type: functional, cell-based;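 note: HEK-293T cells carrying an NF-kB luciferase reporter; cells exposed to compound for about 14 hours before viability readout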
Paired box protein Pax-8 = Paired box protein Pax-8 (Homo sapiens, UniProt Q06710); test: PAX8 transcriptional activity inhibition in RMG-I – RMG-I cells, luciferase, cherry-pick, dose response (AID 687027); assay type: functional, cell-based;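 note: luciferase reporter driven by Pax8 target thyroperoxidase promoter measured by SteadyGlo luminescence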
BJ [18] = test: BJ-TERT fibroblast viability loss – cell-based, RAS-independent, luminescence, dose response (AID 1933); assay type: functional; settings: Homo sapiens
[19] = DRD fibroblast viability loss – cell-based, non-viral oncogenic, luminescence, dose response (AID 1934); assay type: functional; settings: Homo sapiens
[20] = microbe, parasite or virus in culture; assay type: functional; settings: Mycobacterium tuberculosis
Protein RecA = target: T5, Protein RecA (Mycobacterium tuberculosis, UniProt P9WHJ3); test: Fluorescence Cell-Free Homogeneous Dose Retest to Identify Inhibitors of RecA-Intein Splicing Activity. [Related pubchem assays (depositor defined):AID2097, AID2223, AID489010, AID492950]; assay type: functional
T5 sequence (P9WHJ3 whole entry): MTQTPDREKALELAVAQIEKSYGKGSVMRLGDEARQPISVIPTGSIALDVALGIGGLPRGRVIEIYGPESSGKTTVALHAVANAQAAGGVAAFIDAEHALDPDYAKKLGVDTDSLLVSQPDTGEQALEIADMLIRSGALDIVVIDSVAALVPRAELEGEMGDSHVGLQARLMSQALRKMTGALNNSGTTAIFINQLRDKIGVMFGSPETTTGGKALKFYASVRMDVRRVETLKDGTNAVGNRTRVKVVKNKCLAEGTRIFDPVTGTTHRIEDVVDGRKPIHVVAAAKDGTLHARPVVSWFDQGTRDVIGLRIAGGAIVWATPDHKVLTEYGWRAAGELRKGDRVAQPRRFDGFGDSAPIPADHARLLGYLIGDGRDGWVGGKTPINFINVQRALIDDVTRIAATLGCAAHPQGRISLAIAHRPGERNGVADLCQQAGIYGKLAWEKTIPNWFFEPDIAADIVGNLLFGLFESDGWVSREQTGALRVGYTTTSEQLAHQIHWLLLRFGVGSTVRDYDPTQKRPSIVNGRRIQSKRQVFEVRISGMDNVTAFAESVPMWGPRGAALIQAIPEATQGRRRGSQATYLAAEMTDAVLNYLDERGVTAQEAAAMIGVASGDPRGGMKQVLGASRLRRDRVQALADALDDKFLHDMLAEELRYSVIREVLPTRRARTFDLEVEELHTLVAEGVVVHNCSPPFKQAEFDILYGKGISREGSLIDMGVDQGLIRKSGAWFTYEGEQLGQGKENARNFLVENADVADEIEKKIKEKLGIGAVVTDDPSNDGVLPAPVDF

[21] = target: T6, Heat shock factor protein 1 (Mus musculus, UniProt P38532); test: decrease of HSF1-responsive luciferase luminescence – cell-based, NIH3T3, dose retest, confirmation (AID 2382); assay type: functional;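 note: NIH3T3 fibroblasts with HSF1-driven luciferase reporter stressed by proteasome inhibitor MG132; luminescence from HSF1-driven luciferase expression after 8 hours of MG132 stress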
T6 sequence (P38532 whole entry): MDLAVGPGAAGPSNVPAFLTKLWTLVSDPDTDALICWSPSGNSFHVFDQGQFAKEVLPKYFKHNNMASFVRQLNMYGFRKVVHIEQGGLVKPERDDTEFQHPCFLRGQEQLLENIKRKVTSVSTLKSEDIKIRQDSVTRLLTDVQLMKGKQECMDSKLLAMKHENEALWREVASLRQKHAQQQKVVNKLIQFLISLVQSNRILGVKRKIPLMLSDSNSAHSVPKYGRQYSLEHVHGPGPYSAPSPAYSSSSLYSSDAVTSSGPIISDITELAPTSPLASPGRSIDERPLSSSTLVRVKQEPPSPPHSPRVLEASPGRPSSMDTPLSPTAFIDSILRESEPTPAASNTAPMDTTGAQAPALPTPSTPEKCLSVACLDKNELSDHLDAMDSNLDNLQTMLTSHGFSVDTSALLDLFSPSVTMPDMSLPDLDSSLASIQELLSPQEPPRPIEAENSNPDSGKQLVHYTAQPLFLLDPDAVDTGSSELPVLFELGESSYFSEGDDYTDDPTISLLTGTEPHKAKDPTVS

[22] = Intein inhibitors as potential Tuberculosis drugs, a cytotoxicity screen. [Related pubchem assays (depositor defined):AID2221, AID2223, AID434968, AID435010, AID449749, AID449750, AID489010]; assay type: functional

T1 sequence (Q00975 whole entry): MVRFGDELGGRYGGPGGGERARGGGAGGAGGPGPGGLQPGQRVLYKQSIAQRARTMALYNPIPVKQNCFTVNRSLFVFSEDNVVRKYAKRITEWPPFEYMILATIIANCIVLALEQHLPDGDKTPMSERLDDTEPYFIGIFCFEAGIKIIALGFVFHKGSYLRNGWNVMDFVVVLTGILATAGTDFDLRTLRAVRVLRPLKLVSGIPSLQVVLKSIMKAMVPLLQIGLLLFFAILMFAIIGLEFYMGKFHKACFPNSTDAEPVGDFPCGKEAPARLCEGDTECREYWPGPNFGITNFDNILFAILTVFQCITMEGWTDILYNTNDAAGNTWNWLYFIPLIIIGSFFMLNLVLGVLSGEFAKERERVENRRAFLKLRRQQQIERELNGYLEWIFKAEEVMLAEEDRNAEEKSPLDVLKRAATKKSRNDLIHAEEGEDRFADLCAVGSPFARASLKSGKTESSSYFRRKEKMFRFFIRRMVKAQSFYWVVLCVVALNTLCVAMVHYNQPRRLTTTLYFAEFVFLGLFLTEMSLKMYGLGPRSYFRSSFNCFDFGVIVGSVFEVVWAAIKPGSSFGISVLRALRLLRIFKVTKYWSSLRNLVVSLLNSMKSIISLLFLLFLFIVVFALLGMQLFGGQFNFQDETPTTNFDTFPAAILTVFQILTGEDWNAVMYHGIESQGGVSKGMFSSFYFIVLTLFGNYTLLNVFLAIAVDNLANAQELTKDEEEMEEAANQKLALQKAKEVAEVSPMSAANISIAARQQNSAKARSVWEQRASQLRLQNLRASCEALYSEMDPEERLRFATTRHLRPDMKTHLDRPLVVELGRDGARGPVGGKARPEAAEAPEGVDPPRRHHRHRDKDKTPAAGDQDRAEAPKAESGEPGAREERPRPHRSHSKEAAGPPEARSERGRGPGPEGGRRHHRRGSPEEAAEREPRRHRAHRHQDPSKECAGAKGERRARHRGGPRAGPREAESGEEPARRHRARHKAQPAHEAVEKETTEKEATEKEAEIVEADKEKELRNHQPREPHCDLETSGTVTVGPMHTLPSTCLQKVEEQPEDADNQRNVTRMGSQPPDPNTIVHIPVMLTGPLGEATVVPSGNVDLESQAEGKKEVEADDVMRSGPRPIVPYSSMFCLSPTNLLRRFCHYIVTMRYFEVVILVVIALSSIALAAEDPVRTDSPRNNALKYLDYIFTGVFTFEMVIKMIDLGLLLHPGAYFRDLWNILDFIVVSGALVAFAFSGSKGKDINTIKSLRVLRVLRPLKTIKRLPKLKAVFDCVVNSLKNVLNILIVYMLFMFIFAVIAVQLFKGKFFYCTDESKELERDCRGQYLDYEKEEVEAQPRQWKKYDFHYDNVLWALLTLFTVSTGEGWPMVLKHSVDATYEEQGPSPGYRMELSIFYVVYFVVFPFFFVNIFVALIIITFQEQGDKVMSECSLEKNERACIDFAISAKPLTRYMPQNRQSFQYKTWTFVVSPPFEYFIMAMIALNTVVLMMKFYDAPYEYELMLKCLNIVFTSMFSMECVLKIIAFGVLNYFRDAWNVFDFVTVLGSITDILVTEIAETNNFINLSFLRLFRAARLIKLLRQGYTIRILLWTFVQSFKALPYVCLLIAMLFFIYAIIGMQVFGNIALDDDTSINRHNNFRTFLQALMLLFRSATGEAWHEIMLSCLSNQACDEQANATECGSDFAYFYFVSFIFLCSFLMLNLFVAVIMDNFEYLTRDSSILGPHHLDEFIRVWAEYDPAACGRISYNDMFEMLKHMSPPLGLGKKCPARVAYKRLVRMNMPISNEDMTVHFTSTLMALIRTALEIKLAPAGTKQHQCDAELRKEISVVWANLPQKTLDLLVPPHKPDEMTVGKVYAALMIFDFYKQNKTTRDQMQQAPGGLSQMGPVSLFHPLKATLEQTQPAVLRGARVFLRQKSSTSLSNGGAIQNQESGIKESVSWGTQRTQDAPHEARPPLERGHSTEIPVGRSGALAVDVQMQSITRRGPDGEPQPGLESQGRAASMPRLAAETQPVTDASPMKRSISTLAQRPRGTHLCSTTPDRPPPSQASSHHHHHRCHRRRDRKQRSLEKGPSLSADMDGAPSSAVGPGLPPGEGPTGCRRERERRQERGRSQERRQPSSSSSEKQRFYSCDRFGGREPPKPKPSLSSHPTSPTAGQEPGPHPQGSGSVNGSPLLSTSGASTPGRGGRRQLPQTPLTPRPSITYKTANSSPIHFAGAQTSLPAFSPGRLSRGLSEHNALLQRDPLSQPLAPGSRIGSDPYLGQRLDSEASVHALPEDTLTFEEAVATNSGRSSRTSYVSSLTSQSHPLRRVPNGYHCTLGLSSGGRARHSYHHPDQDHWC
T1 sequence (Q02410 whole entry): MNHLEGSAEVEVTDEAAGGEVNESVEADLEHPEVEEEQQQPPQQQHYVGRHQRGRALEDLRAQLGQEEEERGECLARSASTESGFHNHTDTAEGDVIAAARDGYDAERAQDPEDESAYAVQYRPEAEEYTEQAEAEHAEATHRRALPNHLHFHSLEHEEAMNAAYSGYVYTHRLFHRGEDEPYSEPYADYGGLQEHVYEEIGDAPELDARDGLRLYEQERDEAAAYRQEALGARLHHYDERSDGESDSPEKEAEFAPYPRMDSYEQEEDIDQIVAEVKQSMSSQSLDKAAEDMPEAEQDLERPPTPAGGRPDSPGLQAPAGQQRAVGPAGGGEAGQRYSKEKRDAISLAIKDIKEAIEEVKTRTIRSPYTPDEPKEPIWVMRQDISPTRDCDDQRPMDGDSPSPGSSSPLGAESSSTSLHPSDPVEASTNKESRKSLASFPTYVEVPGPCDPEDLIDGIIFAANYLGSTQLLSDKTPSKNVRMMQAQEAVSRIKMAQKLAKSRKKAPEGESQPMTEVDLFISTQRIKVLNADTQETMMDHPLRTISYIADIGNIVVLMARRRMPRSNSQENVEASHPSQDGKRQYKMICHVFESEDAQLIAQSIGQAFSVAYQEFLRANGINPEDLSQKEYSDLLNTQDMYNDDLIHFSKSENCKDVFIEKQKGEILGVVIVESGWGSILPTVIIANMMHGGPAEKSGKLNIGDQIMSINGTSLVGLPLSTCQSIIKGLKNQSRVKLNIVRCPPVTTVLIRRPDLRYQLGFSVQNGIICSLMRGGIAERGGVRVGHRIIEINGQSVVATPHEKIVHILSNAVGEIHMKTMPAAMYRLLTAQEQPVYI
Chain of Beta Lactamase (Q932Y6 whole entry): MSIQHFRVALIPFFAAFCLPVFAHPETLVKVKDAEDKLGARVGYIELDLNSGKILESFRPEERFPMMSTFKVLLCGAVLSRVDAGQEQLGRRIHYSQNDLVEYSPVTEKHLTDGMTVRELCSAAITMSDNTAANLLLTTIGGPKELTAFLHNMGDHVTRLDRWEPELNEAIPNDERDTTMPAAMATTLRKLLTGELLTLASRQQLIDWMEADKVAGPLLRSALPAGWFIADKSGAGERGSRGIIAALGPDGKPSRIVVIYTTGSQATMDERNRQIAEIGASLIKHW
Chain of Luciferin 4-monooxygenase (P08659 whole entry): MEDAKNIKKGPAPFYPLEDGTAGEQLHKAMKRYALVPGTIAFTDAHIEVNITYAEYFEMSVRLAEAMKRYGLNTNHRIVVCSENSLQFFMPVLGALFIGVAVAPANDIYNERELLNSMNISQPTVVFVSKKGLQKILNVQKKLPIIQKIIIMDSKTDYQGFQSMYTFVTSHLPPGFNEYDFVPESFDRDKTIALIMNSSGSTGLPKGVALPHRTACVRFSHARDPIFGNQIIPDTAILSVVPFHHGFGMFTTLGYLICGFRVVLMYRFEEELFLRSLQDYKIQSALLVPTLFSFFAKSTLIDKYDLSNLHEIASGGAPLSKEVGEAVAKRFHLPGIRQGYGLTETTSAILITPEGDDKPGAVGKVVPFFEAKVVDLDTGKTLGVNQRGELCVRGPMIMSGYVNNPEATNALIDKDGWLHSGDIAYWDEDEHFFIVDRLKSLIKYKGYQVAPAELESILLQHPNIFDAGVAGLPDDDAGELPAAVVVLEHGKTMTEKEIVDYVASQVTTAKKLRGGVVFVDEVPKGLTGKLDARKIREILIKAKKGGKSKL
Chain of Paired box protein Pax-8 (Q06710 whole entry): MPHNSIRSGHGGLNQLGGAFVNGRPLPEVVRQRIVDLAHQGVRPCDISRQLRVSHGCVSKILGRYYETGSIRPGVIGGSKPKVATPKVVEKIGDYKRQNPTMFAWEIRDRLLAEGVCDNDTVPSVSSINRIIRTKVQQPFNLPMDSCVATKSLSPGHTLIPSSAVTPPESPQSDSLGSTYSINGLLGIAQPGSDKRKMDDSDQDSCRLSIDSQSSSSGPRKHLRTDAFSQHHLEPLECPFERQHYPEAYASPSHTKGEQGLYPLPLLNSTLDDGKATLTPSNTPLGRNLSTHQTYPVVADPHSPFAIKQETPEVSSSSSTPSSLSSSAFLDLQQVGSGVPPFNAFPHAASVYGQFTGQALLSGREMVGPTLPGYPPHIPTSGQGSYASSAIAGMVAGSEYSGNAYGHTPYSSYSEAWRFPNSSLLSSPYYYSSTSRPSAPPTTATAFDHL
Chain of Sphingosine 1-phosphate receptor 1 (P21453 whole entry): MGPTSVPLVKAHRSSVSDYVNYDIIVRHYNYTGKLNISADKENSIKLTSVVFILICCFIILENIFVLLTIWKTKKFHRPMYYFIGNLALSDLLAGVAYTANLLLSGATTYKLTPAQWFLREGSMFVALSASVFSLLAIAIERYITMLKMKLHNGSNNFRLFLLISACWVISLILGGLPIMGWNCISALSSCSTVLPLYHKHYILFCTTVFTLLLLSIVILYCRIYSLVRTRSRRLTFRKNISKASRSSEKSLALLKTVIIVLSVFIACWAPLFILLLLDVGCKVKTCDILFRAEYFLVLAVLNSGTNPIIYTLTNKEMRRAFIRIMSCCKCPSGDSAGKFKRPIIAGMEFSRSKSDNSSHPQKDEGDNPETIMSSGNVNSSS

With `O=C1C=C(c2ccc(Cl)cc2)C(=O)N1Nc1ccccc1` the EC50 [1] was > 112 µM (not active), the IC50 [2] was 21.1 µM (active) and the IC50 [3] was 1.95 µM (active). For the same compound, the IC50 (CHO-K1) was 50.7 µM (inactive), the IC50 [4] was 3.12 µM (active) and the IC50 [5] was 13.6 µM (not active). The IC50 (Beta Lactamase) was 13 µM (inactive), the EC50 [6] was 21.5 µM (active) and the IC50 [7] was 1.03 µM (active). For the same compound, the IC50 [8] was 4.98 µM (active), the AC50 [9] was 0.267 µM (active) and the IC50 [10] was > 50 µM (inactive). For the same compound, the IC50 [11] was 3.73 µM (active).

With `C=CCOc1ccccc1CN(C(=O)CCl)c1ccc2c(c1)OCO2` the EC50 (BJ [12]) was > 66.7 µM (inactive), the AC50 [13] was 2.37 µM (active) and the EC50 (BJ [14]) was 17.3 µM (inconclusive). For the same compound, the AC50 [15] was 9.67 µM (active), the EC50 (BJ [16]) was 4.58 µM (active) and the IC50 [17] was 62.1 µM (inactive). For the same compound, the AC50 (Paired box protein Pax-8) was 5.46 µM (active), the EC50 (BJ [18]) was 0.7 µM (inconclusive) and the EC50 [19] was 5.04 µM (active). The CC50 [20] was 1.68 µM (active), the EC50 (Protein RecA) was 0.481 µM (active) and the EC50 [21] was 4.88 µM (active). The CC50 [22] was 2.07 µM (active).
